Measurements as given in PubChem BioAssay (NCI).
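Five concentrations, 48 hours, 96-well plates. GI50 marks 50% less growth. TGI: total growth inhibition.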

What was measured:
Test in all cases: DTP human tumour cell line panel, 48 h
[1] = test system: PC-3 prostate
[2] = test system: HCT-15 colon
[3] = test system: NCI/ADR-RES ovarian
[4] = test system: IGROV1 ovarian
[5] = test system: HCT-116 colon
[6] = test system: SF-268 CNS
[7] = test system: RPMI-8226 leukemia
[8] = test system: SW-620 colon
[9] = test system: MOLT-4 leukemia
[10] = test system: CAKI-1 renal

| Compound | TGI [1] [µM] | TGI [2] [µM] | TGI [3] [µM] | TGI [4] [µM] | TGI [5] [µM] | TGI [6] [µM] | TGI [7] [µM] | TGI [8] [µM] | TGI [9] [µM] | TGI [10] [µM] | GI50 [1] [µM] | GI50 [2] [µM] | GI50 [3] [µM] | GI50 [4] [µM] | GI50 [5] [µM] | GI50 [7] [µM] | GI50 [8] [µM] | GI50 [9] [µM] | GI50 [10] [µM] | GI50 [6] [µM] |
| --- | --- | --- | --- | --- | --- | --- | --- | --- | --- | --- | --- | --- | --- | --- | --- | --- | --- | --- | --- | --- |
| CSC1(CC(=O)N(C)C)C(=O)Nc2ccccc21 (configuration not stated) | > 100 | > 100 | > 100 | > 100 | > 100 | > 100 | > 100 | > 100 | > 100 | – | – | – | – | – | – | – | – | – | – | – |
| CCOC(=O)c1[nH]c(COC(C)=O)c(CCCOC(C)=O)c1CCCOC(C)=O | – | > 100 | – | > 100 | > 100 | > 100 | – | > 100 | > 100 | > 100 | – | – | – | – | – | – | – | – | – | – |
| CCOC(=O)C1N(S(=O)(=O)c2ccc(C)cc2)CCC12C(c1ccc(OC)cc1)NC1CCCCC12 (configuration not stated) | – | > 100 | – | > 100 | > 100 | > 100 | > 100 | > 100 | – | > 100 | – | – | – | – | – | – | – | – | – | – |
| CCOC(=O)[C@H](CCCNC(=O)OC(C)(C)C)NCc1ccc(OC)c(OC)c1 | – | – | – | > 100 | > 100 | > 100 | – | > 100 | > 100 | > 100 | – | – | – | – | – | – | – | – | – | – |
| CC(=O)Oc1ccccc1C(=O)N=C1[Se]CCCN1C(=O)c1ccccc1OC(C)=O | 7.24 | 7.28 | 8.09 | 11.6 | 5.95 | – | 6.13 | 11.4 | 4.96 | – | 2.34 | 2.53 | 2.92 | 2.83 | 2.1 | 2.42 | 3.58 | 1.92 | – | – |
| O=C(CCC(=O)Nc1cccc(Cl)c1)CC(=O)c1ccc(Cl)cc1 | – | > 100 | – | > 100 | > 100 | > 100 | > 100 | > 100 | > 100 | > 100 | – | – | – | – | – | – | – | – | – | – |
| CC(=O)c1c(CBr)n([O-])c2ccccc2[n+]1=O | 33.1 | 27.7 | 50.3 | 29.2 | 2.89 | – | 30.5 | 4.15 | 15.7 | 25.8 | 15.5 | 13.6 | 19.5 | 13.6 | 1.36 | 4.9 | 2.04 | 4 | 12.9 | – |
| NC1CCCC[C@H]1N.N[C@@H]1CCCC[C@@H]1N.O=C(P(=O)([O-])[O-])P(=O)([O-])[O-].[Pt+4].[Pt+4] | – | > 100 | – | > 100 | > 100 | > 100 | > 100 | > 100 | > 100 | > 100 | – | 63.8 | – | > 100 | 83.8 | 31.1 | 38.8 | 16 | > 100 | > 100 |
| C#CC(=O)Nc1cccc(Nc2nc3c(c(NCc4ccccc4)n2)CCCC3)c1 | 0.0344 | 1.14 | – | 0.0598 | 0.291 | 0.0958 | – | – | – | – | < 0.01 | 0.231 | – | < 0.01 | 0.12 | – | – | – | – | 0.0203 |
| CC(C)(C)N1CC2(CCCCC2)C1=O | – | > 100 | – | > 100 | > 100 | > 100 | > 100 | > 100 | > 100 | > 100 | – | – | – | – | – | – | – | – | – | – |
| O=C(/C=C/c1ccccc1)/C=C/c1ccccc1 | – | 70.5 | – | 66.5 | 32.1 | 66.4 | > 100 | 40.8 | 86.5 | > 100 | – | – | – | – | – | – | – | – | – | – |
| CCCS(=O)(=O)Nc1ccc(Nc2c3ccccc3nc3ccccc23)c(OC)c1 | 17.6 | 6.41 | 37.1 | 18.2 | 13.2 | 8.31 | – | 21.3 | 0.231 | 13.7 | – | – | – | – | – | – | – | – | – | – |
| O=C1c2ccn(CCCCNC(CO)(CO)CO)c2C(=O)c2c1c(O)c1ccccc1c2O | 7.57 | – | 42.3 | > 100 | 0.857 | 18.1 | 11 | 13 | 4.2 | 2.68 | 2.83 | – | 16.3 | 2.01 | 0.436 | 1.21 | 2.02 | 2.27 | 0.808 | 3.41 |
| O/N=C\c1c(O)ccc2ccccc12 | > 100 | > 100 | > 100 | – | > 100 | > 100 | > 100 | > 100 | – | > 100 | – | – | – | – | – | – | – | – | – | – |
| COc1cc2cn3c4ccc(O)cc4[nH]c(=O)c3c2cc1OC | 2.02 | 1.35 | 2.01 | – | 1.66 | 1.55 | 10.4 | 1.83 | 2.01 | 1.3 | 0.0461 | 0.0207 | 0.0883 | – | < 0.01 | 1.25 | < 0.0119 | 0.0439 | 0.0158 | < 0.01 |
| O=C(CSc1nnc(-c2ccccc2NC(=O)C(F)(F)F)c(=O)[nH]1)NC(=O)Nc1ccccc1 | – | > 100 | – | > 100 | > 100 | > 100 | – | > 100 | > 100 | > 100 | – | – | – | – | – | – | – | – | – | – |
| O=C(O)c1cc(O)c2c(c1)C(C1c3cc(C(=O)O)cc(O)c3C(=O)c3c(OC4OC(CO)C(O)C(O)C4O)cccc31)c1cccc(OC3OC(CO)C(O)C(O)C3O)c1C2=O (configuration not stated) | > 100 | > 100 | > 100 | > 100 | > 100 | > 100 | – | > 100 | > 100 | > 100 | > 100 | > 100 | > 100 | > 100 | > 100 | – | > 100 | > 100 | > 100 | > 100 |
| Cc1c[n+](Cc2ccc3ccccc3c2)cn1Cc1ccc2ccccc2c1 | 2.84 | 24.2 | > 100 | 3.75 | 2.7 | 2.88 | 2.49 | 3.74 | 4.06 | – | 1.27 | 10.3 | > 100 | 1.46 | 1.39 | 0.595 | 1.64 | 1.7 | – | 1.36 |
| N#CC(/C(=N/NC(=O)C(=O)NN)C(=O)NC12CC3CC(CC(C3)C1)C2)c1ccccc1 (configuration not stated) | – | > 100 | – | > 100 | > 100 | > 100 | > 100 | > 100 | > 100 | > 100 | – | – | – | – | – | – | – | – | – | – |
